Reference: ChEMBL document CHEMBL1201862, “PubChem BioAssay data set” (2004)
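Dose response: 5 concentrations. Exposure: 48 h. Format: 96-well plates. Endpoint: linear interpolation; highest concentration if not reached. GI50 is the concentration that inhibits growth by half.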 The source made the active and inactive calls. No stated cut-off is given here; in the data, active = GI50 up to about 1.1 µM and inactive = higher.

How the values were obtained:
Assay in all cases: NCI anticancer screen, dose series, 48 h
ACHN = system: ACHN
EKVX = system: EKVX
HCT-15 = system: HCT-15
HOP-62 = system: HOP-62
IGROV-1 = system: IGROV-1
LXFL 529 = system: LXFL 529
M19-MEL = system: M19-MEL
NCI-H226 = system: NCI-H226
RPMI-8226 = system: RPMI-8226
SF-295 = system: SF-295
SF-539 = system: SF-539
SK-MEL-5 = system: SK-MEL-5
SNB-19 = system: SNB-19
SNB-75 = system: SNB-75
UACC-62 = system: UACC-62
RXF 393 = system: RXF 393

| Compound | GI50 (ACHN) | GI50 (EKVX) | GI50 (HCT-15) [µM] | GI50 (HOP-62) | GI50 (IGROV-1) | GI50 (LXFL 529) | GI50 (M19-MEL) | GI50 (NCI-H226) | GI50 (RPMI-8226) | GI50 (SF-295) | GI50 (SF-539) | GI50 (SK-MEL-5) | GI50 (SNB-19) | GI50 (SNB-75) | GI50 (UACC-62) | GI50 (RXF 393) |
| --- | --- | --- | --- | --- | --- | --- | --- | --- | --- | --- | --- | --- | --- | --- | --- | --- |
| Nc1c(C(=O)Nc2ccccc2)[n+]([O-])c2ccccc2[n+]1[O-] | 16.3 µM (inactive) | 25.9 µM (inactive) | 13.1 | 19.1 µM (inactive) | 18.4 µM (inactive) | 14.4 µM (inactive) | 15 µM (inactive) | 23.9 µM (inactive) | 20.6 µM (inactive) | 20.9 µM (inactive) | 17.9 µM (inactive) | 14.3 µM (inactive) | 15.5 µM (inactive) | 13 µM (inactive) | 10.5 µM (inactive) |  |
| Cn1c2c(c3ccccc31)C1CCCCC1C1C(=O)NC(=O)C21 (configuration not stated) | 35.2 µM (inactive) | 32.8 µM (inactive) | 68.9 |  | > 100 µM (inactive) | > 100 µM (inactive) | 58.3 µM (inactive) | 21.6 µM (inactive) | 41.8 µM (inactive) | 57.7 µM (inactive) | 80.7 µM (inactive) | 45 µM (inactive) | > 100 µM (inactive) | 33.1 µM (inactive) | > 100 µM (inactive) | 32.4 µM (inactive) |
| O=C(/C=C/c1ccc(Cl)c(Cl)c1)c1ccc(F)cc1 | 17.8 µM (inactive) | 27.4 µM (inactive) | 10.2 | > 100 µM (inactive) | 20.3 µM (inactive) | 14.6 µM (inactive) | 18.2 µM (inactive) | 33.1 µM (inactive) | 3.3 µM (inactive) | 20.2 µM (inactive) | 20.8 µM (inactive) | 19.9 µM (inactive) | 16.8 µM (inactive) | 22.9 µM (inactive) | 14.7 µM (inactive) |  |
| CCN(CC)CCCC(C)Nc1ccnc2ccc3nn(C)nc3c12 (configuration not stated) | 65.3 µM (inactive) | > 100 µM (inactive) |  | 76.6 µM (inactive) | > 100 µM (inactive) | 55.5 µM (inactive) | 49 µM (inactive) | 39.6 µM (inactive) | 53 µM (inactive) | 44.7 µM (inactive) | 37.8 µM (inactive) | > 100 µM (inactive) | > 100 µM (inactive) | > 100 µM (inactive) | > 100 µM (inactive) |  |
| Cc1cc(N(CCC#N)CCC#N)ccc1/C=C(/NC(=O)/C=C/c1ccccc1)C(N)=O | > 100 µM (inactive) | > 100 µM (inactive) | > 100 | > 100 µM (inactive) | > 100 µM (inactive) | > 100 µM (inactive) | > 100 µM (inactive) | > 100 µM (inactive) | > 100 µM (inactive) | > 100 µM (inactive) | > 100 µM (inactive) | > 100 µM (inactive) | > 100 µM (inactive) | > 100 µM (inactive) | > 100 µM (inactive) | 4.19 µM (inactive) |
| CC1=C(C(=O)CC(=O)C(=O)Nc2ccccc2)Sc2ccccc2N1 | > 100 µM (inactive) | > 100 µM (inactive) | > 100 | > 100 µM (inactive) | > 100 µM (inactive) | > 100 µM (inactive) | > 100 µM (inactive) | > 100 µM (inactive) | > 100 µM (inactive) | > 100 µM (inactive) | > 100 µM (inactive) | > 100 µM (inactive) | > 100 µM (inactive) |  | > 100 µM (inactive) | > 100 µM (inactive) |
| CCOc1ccc(NC(=O)C2=C(C)NC(C)=C(C(=O)Nc3ccc(OCC)cc3)C2c2ccc(O)c(OC)c2)cc1 | 55.1 µM (inactive) | > 100 µM (inactive) |  | 29.5 µM (inactive) | > 100 µM (inactive) | 67.3 µM (inactive) | > 100 µM (inactive) | 40.3 µM (inactive) | 28.6 µM (inactive) | 54.7 µM (inactive) | 28.8 µM (inactive) | 46 µM (inactive) | > 100 µM (inactive) | 14.3 µM (inactive) |  | 28.9 µM (inactive) |
| CCOC(=O)COS(=O)(=O)C(F)(F)F | > 100 µM (inactive) | > 100 µM (inactive) | 18.5 | > 100 µM (inactive) | > 100 µM (inactive) | 89.9 µM (inactive) | > 100 µM (inactive) | > 100 µM (inactive) | 23.9 µM (inactive) | > 100 µM (inactive) | > 100 µM (inactive) | > 100 µM (inactive) | > 100 µM (inactive) | > 100 µM (inactive) | > 100 µM (inactive) | > 100 µM (inactive) |
| O=C1OCCC1(Cc1ccc(Cl)cc1)Cc1ccc(Cl)cc1 | > 100 µM (inactive) | > 100 µM (inactive) |  | 31.3 µM (inactive) | > 100 µM (inactive) | > 100 µM (inactive) | > 100 µM (inactive) | > 100 µM (inactive) | > 100 µM (inactive) | 34 µM (inactive) |  |  | 30 µM (inactive) | 21.6 µM (inactive) | > 100 µM (inactive) |  |
